Reference: the NIST ThermoML archive (doi:10.1021/je200903m)

Conditions: Liquid, isochoric method

CCCCn1cc[n+](C)c1.O=S(=O)([O-])C(F)(F)F [1-butyl-3-methylimidazolium trifluoromethanesulfonate]
Conditions | mass density [kg/m3]
290.5 K, 40403 kPa | 1326.13
290.51 K, 20585 kPa | 1315.76
290.53 K, 10565 kPa | 1310.84
290.69 K, 30827 kPa | 1321.18
291.26 K, 1592.1 kPa | 1304.62
298.15 K, 9757.7 kPa | 1303.63
298.15 K, 19969 kPa | 1309.73
298.15 K, 20141 kPa | 1309.72
298.15 K, 30285 kPa | 1314.63
298.15 K, 50367 kPa | 1324.98
298.16 K, 9701.7 kPa | 1303.63
298.16 K, 19936 kPa | 1309.73
298.16 K, 30053 kPa | 1314.64
298.16 K, 40303 kPa | 1320.08
298.16 K, 40410 kPa | 1320.08
298.17 K, 10081 kPa | 1303.62
298.17 K, 10432 kPa | 1304.22
298.17 K, 50464 kPa | 1324.97
299.03 K, 2480.8 kPa | 1298.81
305.41 K, 59674 kPa | 1323.93
305.45 K, 10034 kPa | 1297.93
305.45 K, 19292 kPa | 1303.2
305.9 K, 39945 kPa | 1313.54
306 K, 29921 kPa | 1308.61
306 K, 50404 kPa | 1318.95
306.05 K, 19559 kPa | 1302.52
307.17 K, 1752 kPa | 1291.55
313.41 K, 59599 kPa | 1317.95
313.93 K, 49845 kPa | 1312.46
314.21 K, 9839.1 kPa | 1290.64
314.21 K, 20109 kPa | 1296.78
314.21 K, 39744 kPa | 1307.53
314.32 K, 29477 kPa | 1301.43
314.85 K, 831 kPa | 1284.6
321.66 K, 59111 kPa | 1311.47
321.82 K, 29288 kPa | 1295.81
323.07 K, 39773 kPa | 1300.33
323.16 K, 50452 kPa | 1306.39
323.18 K, 10082 kPa | 1283.58
323.2 K, 20072 kPa | 1289.53
323.4 K, 1581.8 kPa | 1277.54
330.39 K, 28233 kPa | 1288.68
330.5 K, 39240 kPa | 1294.79
331.3 K, 241.1 kPa | 1270.51
331.38 K, 10182 kPa | 1276.63
331.38 K, 19050 kPa | 1282.64
331.38 K, 59986 kPa | 1305.41
331.78 K, 49813 kPa | 1299.3
339.84 K, 49769 kPa | 1293.74
340.71 K, 39738 kPa | 1287.53
340.73 K, 10118 kPa | 1269.5
340.75 K, 20227 kPa | 1275.61
340.93 K, 60046 kPa | 1298.28
341.39 K, 30102 kPa | 1281.54
341.68 K, 1330.2 kPa | 1262.9
347.88 K, 58421 kPa | 1292.89
350.01 K, 30185 kPa | 1274.67
350.14 K, 9957.7 kPa | 1262.06
350.15 K, 19909 kPa | 1268.55
350.31 K, 39671 kPa | 1280.63
350.38 K, 50208 kPa | 1286.54

CCn1cc[n+](C)c1.F[B-](F)(F)F [1-ethyl-3-methylimidazolium tetrafluoroborate]
Conditions | mass density [kg/m3]
284.73 K, 40082 kPa | 1309.71
284.74 K, 29331 kPa | 1305.75
285.12 K, 9993.5 kPa | 1296.4
285.2 K, 19389 kPa | 1300.88
285.8 K, 1326.9 kPa | 1292.98
290.95 K, 50018 kPa | 1309.1
291.3 K, 39987 kPa | 1305.11
291.58 K, 20094 kPa | 1295.79
291.59 K, 10267 kPa | 1292.43
292 K, 30197 kPa | 1300.22
292.03 K, 1055.4 kPa | 1288.31
298.14 K, 10219 kPa | 1287.74
298.14 K, 19834 kPa | 1291.82
298.15 K, 20203 kPa | 1291.81
298.15 K, 29284 kPa | 1295.18
298.15 K, 39774 kPa | 1299.63
298.15 K, 39935 kPa | 1299.63
298.15 K, 50710 kPa | 1304.44
298.15 K, 61191 kPa | 1308.4
298.16 K, 30299 kPa | 1295.16
298.63 K, 1139.7 kPa | 1283.3
304.09 K, 59595 kPa | 1303.87
304.39 K, 39527 kPa | 1294.57
304.61 K, 49734 kPa | 1299.01
304.62 K, 29983 kPa | 1291.2
304.69 K, 10037 kPa | 1282.74
304.69 K, 19721 kPa | 1287.13
305.23 K, 1194.1 kPa | 1278.54
311.4 K, 39938 kPa | 1290.56
311.49 K, 30054 kPa | 1286.49
311.51 K, 60021 kPa | 1298.35
311.55 K, 19542 kPa | 1282.12
311.56 K, 10293 kPa | 1277.95
311.72 K, 50382 kPa | 1293.87
312.05 K, 1111.5 kPa | 1273.28
318.36 K, 19918 kPa | 1277.33
318.37 K, 9976 kPa | 1272.71
318.37 K, 50094 kPa | 1289.9
318.4 K, 39958 kPa | 1285.84
318.49 K, 30004 kPa | 1281.46
318.57 K, 60242 kPa | 1293.23
319.24 K, 1155.6 kPa | 1268
325.39 K, 60094 kPa | 1289.24
325.5 K, 50050 kPa | 1285.18
325.59 K, 30106 kPa | 1276.66
325.59 K, 39966 kPa | 1280.8
325.65 K, 9902.1 kPa | 1267.42
325.66 K, 18720 kPa | 1272.06
326.26 K, 1166.5 kPa | 1262.28
332.57 K, 59788 kPa | 1284.52
332.79 K, 39915 kPa | 1275.99
332.85 K, 50074 kPa | 1280.13
332.87 K, 29859 kPa | 1271.38
332.99 K, 10159 kPa | 1261.67
333.07 K, 19960 kPa | 1266.75
333.62 K, 1252.9 kPa | 1257.28
340.28 K, 59745 kPa | 1279.45
340.35 K, 9969.2 kPa | 1256.69
340.37 K, 19698 kPa | 1261.02
340.39 K, 50227 kPa | 1275.3
340.42 K, 39835 kPa | 1270.69
340.55 K, 29899 kPa | 1266.08
341.04 K, 1357.1 kPa | 1251.73
347.77 K, 59854 kPa | 1274.63
347.97 K, 10024 kPa | 1251.12
348.02 K, 29830 kPa | 1260.33
348.04 K, 19820 kPa | 1256
348.15 K, 49790 kPa | 1269.99
348.24 K, 39938 kPa | 1265.38
355.85 K, 20035 kPa | 1250.42
355.86 K, 29675 kPa | 1255.31
356.01 K, 40147 kPa | 1259.61
356.02 K, 49918 kPa | 1264.68
356.4 K, 59860 kPa | 1269.25
